Tested on: Pseudomonas aeruginosa ATCC 9027
Assay: Challenge Test for the Evaluation of Preservative Capacity of Liquid Detergent and Personal Products
Type: cell-based
Settings: aqueous formula, each active component 5%, pH 7.6
Protocol: Experiments were conducted to evaluate antimicrobial activity against Pseudomonas aeruginosa of aqueous formulas containing sodium hydroxyethyl sulfonate, sodium cocoyl glycinate and combinations of these two materials. Samples were prepared at room temperature by mixing together sodium cocoyl glycinate and/or sodium hydroxyethyl sulfonate and water. The pH was adjusted by addition of aqueous hydrochloric acid to reach a 7.6 value. Amounts of each of the active components was 5%. Challenge Test for the Evaluation of Preservative Capacity of Liquid Detergent and Personal Products Pseudomonas aeruginosa ATCC 9027 obtained from American Type Culture Collection, Manassas, Va. 20108. 20 grams of product were inoculated with 0.2 ml of the microorganism at a level of 1.06E+07 or Log 7. A single inoculation was performed. At 2 day, 7 day, 14 day and 21 day time points after inoculation a 1 gram sample was aseptically removed into a neutralizing fluid (TAT Broth) and plated using Letheen Agar. The plates were incubated at 30° C. for 7 days. At the end of the incubation time the plates were removed and examined for microbial growth. The microorganisms recovered were converted into Log10 and compared to initial inoculum count which then determined the Log Reduction. Logarithmic functions are the inverse of exponential functions. Log reduction was determined by the initial inoculum count minus the counts at each sampling time point.

[1] = 2 day after single inoculation (1.06E+07, Log 7)
[2] = 7 day after single inoculation (1.06E+07, Log 7)
[3] = 14 day after single inoculation (1.06E+07, Log 7)
[4] = 21 day after single inoculation (1.06E+07, Log 7)

**Q.** Which results are given for sodium cocoyl glycinate?
**A.** Log Reduction Value [1]: 1.1; Log Reduction Value [2]: 1.1; Log Reduction Value [3]: 0.8; Log Reduction Value [4]: 0.2

**Q.** What does the source list for O=S(=O)([O-])CCO.[Na+] [Sodium Hydroxyethyl Sulfonate, sodium hydroxyethyl sulfonate]?
**A.** Log Reduction Value [1]: 1.1; Log Reduction Value [2]: 0.9; Log Reduction Value [3]: 0.8; Log Reduction Value [4]: 0.5
